How the values were obtained:
[1] = wn = mass fraction of the nth substance listed; details: 101 kPa, Liquid; for mass density: Pycnometric method; for viscosity: Capillary tube (Ostwald / Ubbelohde) method
[2] = mn = molality of the nth substance listed, in mol/kg; details: 101 kPa, Liquid, m2 = 0; for viscosity: Capillary tube (Ostwald / Ubbelohde) method
[3] = 101 kPa, Liquid, Capillary tube (Ostwald / Ubbelohde) method

O=C[C@H](O)[C@@H](O)[C@H](O)CO [D-xylose] + O
[1]
Details	mass density, w1 = 0.025 [kg/m3]	mass density, w1 = 0.05 [kg/m3]	viscosity, w1 = 0.025 [mPa·s]	viscosity, w1 = 0.05 [mPa·s]
293.15 K	1007.24	1015.93	–	–
298.15 K	1005.63	1014.27	0.9096	0.964
303.15 K	1004.03	1012.62	0.8077	0.8547
308.15 K	1002.43	1010.96	0.7269	0.7637
313.15 K	1000.84	1009.31	0.6571	0.6869
318.15 K	999.23	1007.66	0.5992	0.6253

O=C[C@H](O)[C@@H](O)[C@@H](O)CO [L-arabinose] + O
[1]
Details	mass density, w1 = 0.025 [kg/m3]	mass density, w1 = 0.05 [kg/m3]	viscosity, w1 = 0.025 [mPa·s]	viscosity, w1 = 0.05 [mPa·s]
293.15 K	1007.35	1016.09	–	–
298.15 K	1005.77	1014.44	0.9141	0.9695
303.15 K	1004.18	1012.79	0.8116	0.8573
308.15 K	1002.6	1011.13	0.7304	0.7658
313.15 K	1001.01	1009.46	0.6591	0.689
318.15 K	999.43	1007.8	0.6006	0.6295

O [water] + N=C(N)NCCC[C@H](N)C(=O)O
[2]
Details	viscosity [mPa·s]
298.15 K	0.8903
303.15 K	0.7973
308.15 K	0.719
313.15 K	0.6526
318.15 K	0.5972

Details	mass density [kg/m3]
[2], 308.15 K, Pycnometric method	994.07

O [water]
[3]
Details	viscosity [mPa·s]
298.15 K	0.8903
303.15 K	0.7973
308.15 K	0.719
313.15 K	0.6526
318.15 K	0.5972

Reference: the NIST ThermoML archive (doi:10.1016/j.jct.2013.04.001)
